Active and inactive are the calls of the source. The calls are words filed in the database; no cut-off is given here. Residues, ends and D or L forms follow the SMILES beside them.
Assays:
[1] = target: T1, Prostaglandin G/H synthase 2 (Homo sapiens, UniProt P35354); experiment: Inhibition of human recombinant COX2 by fluorescence assay
T1 sequence (P35354 whole entry): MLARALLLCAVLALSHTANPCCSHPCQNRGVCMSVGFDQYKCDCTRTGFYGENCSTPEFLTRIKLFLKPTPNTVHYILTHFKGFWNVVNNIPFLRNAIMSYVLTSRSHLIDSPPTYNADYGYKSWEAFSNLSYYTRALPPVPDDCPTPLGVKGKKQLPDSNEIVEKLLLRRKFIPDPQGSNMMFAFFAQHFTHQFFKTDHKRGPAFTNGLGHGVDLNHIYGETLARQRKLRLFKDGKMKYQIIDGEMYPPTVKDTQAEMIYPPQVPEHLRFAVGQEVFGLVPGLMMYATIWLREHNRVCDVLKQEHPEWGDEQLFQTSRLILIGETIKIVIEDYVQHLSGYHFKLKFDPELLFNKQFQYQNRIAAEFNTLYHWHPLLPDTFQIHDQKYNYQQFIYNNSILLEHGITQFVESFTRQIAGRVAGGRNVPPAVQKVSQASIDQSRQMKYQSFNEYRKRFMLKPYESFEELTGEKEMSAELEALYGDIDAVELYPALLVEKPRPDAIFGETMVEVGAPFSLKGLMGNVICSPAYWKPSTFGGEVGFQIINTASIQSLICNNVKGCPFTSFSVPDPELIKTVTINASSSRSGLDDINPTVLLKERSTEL

[2] = target: T2, Prostaglandin G/H synthase 1 (Ovis aries) (UniProt P05979); experiment: Inhibition of ovine COX1 at 1 nM to 1 mM by fluorescence assay
T2 sequence (whole entry): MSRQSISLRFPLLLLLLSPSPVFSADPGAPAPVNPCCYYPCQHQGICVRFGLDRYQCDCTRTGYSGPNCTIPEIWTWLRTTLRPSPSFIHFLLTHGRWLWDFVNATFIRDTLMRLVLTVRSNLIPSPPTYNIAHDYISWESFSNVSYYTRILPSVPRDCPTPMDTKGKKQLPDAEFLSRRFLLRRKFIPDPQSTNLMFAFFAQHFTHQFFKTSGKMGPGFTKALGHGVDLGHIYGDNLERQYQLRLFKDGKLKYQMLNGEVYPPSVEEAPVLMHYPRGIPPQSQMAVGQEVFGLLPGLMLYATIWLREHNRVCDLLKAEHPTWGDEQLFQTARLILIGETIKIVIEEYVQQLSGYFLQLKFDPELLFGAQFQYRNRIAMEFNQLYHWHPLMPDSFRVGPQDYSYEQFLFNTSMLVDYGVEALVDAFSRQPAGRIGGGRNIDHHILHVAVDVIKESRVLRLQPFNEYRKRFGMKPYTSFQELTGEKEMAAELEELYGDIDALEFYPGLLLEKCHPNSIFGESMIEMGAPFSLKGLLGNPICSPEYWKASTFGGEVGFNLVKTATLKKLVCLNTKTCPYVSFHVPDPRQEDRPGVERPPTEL

[3] = target: T3, Prostaglandin G/H synthase 2 (Homo sapiens) (UniProt P35354); experiment: Inhibition of human recombinant COX2 at 1 nM to 1 mM by fluorescence assay
T3 sequence (whole entry): T1 sequence (P35354 whole entry)

[4] = target: T4, Prostaglandin G/H synthase 1 (Ovis aries, UniProt P05979); experiment: Inhibition of ovine COX1 by fluorescence assay
T4 sequence (P05979 whole entry): T2 sequence (whole entry)

[5] = target: T1, Prostaglandin G/H synthase 2; experiment: Binding affinity to COX2 by surface plasmon resonance spectroscopy
[6] = target: T1, Prostaglandin G/H synthase 2; experiment: Inhibition of COX2 by ELISA

Row | SMILES | IC50 [1] [µM] | inhibition [2] | inhibition [3] | IC50 [4] [µM] | Kd [5] [nM] | IC50 [6] [nM]
1 | CSCC[C@H](NC(=O)[C@H](Cc1ccc(O)cc1)NC(=O)c1ccc(F)cc1)C(=O)N[C@@H](CCC(=O)O)C(=O)O | 500 | inactive |  |  |  | 
2 | O=C(N[C@@H](Cc1ccc(O)cc1)C(=O)N[C@@H](CO)C(=O)O)c1ccc(F)cc1 | 140 | inactive |  |  |  | 
3 | O=C(O)C[C@H](NC(=O)[C@H](Cc1ccc(O)cc1)NC(=O)[C@H](Cc1c[nH]c2ccccc12)NC(=O)c1ccc(F)cc1)C(=O)O |  | inactive | inactive |  |  | 
4 | CSCC[C@H](NC(=O)[C@H](Cc1c[nH]c2ccccc12)NC(=O)c1ccc(F)cc1)C(=O)N[C@@H](CC(=O)O)C(=O)O | 450 | inactive |  |  |  | 
5 | O=C(N[C@@H](Cc1c[nH]c2ccccc12)C(=O)N[C@@H](CS)C(=O)N[C@@H](CO)C(=O)O)c1ccc(F)cc1 | 85 |  |  | 140 |  | 
6 | O=C(O)C[C@H](NC(=O)[C@H](CS)NC(=O)c1ccc(F)cc1)C(=O)O | 14 |  |  | 15 |  | 
7 | CSCC[C@H](NC(=O)[C@H](Cc1ccccc1)NC(=O)c1ccc(F)cc1)C(=O)N[C@@H](CCC(=O)O)C(=O)O | > 1000 | inactive |  |  |  | 
8 | N[C@@H](Cc1c[nH]c2ccccc12)C(=O)N[C@@H](CS)C(=O)N[C@@H](CO)C(=O)O (H-Trp-Cys-Ser-OH) | 21 |  |  | 6 | 0.19 | 15
9 | O=C(N[C@@H](Cc1ccccc1)C(=O)N[C@@H](CS)C(=O)N[C@@H](CO)C(=O)O)c1ccc(F)cc1 | 13 |  |  | 27 |  | 
10 | CSCC[C@H](NC(=O)[C@H](Cc1ccc(O)cc1)NC(=O)c1ccc(F)cc1)C(=O)N[C@@H](CC(=O)O)C(=O)O | > 1000 | inactive |  |  |  | 
11 | CSCC[C@H](NC(=O)[C@H](Cc1ccccc1)NC(=O)c1ccc(F)cc1)C(=O)N[C@@H](CC(=O)O)C(=O)O | 450 | inactive |  |  |  | 
12 | O=C(N[C@@H](Cc1c[nH]c2ccccc12)C(=O)N[C@@H](CO)C(=O)O)c1ccc(F)cc1 | 200 | inactive |  |  |  | 
13 | O=C(N[C@@H](Cc1ccc(O)cc1)C(=O)N[C@@H](Cc1c[nH]c2ccccc12)C(=O)N[C@@H](CO)C(=O)O)c1ccc(F)cc1 | 180 | inactive |  |  |  | 
14 | N[C@@H](Cc1c[nH]c2ccccc12)C(=O)N[C@@H](Cc1ccc(O)cc1)C(=O)N[C@@H](CC(=O)O)C(=O)O (H-Trp-Tyr-Asp-OH) | 700 | inactive |  |  |  | 
15 | CSCC[C@H](NC(=O)[C@H](Cc1c[nH]c2ccccc12)NC(=O)c1ccc(F)cc1)C(=O)N[C@@H](CCC(=O)O)C(=O)O | 350 | inactive |  |  |  | 
16 | O=C(N[C@@H](CS)C(=O)N[C@@H](CO)C(=O)O)c1ccc(F)cc1 | 15 |  |  | 5 |  | 
17 | O=C(O)C[C@H](NC(=O)[C@H](Cc1ccc(O)cc1)NC(=O)c1ccc(F)cc1)C(=O)O | 110 | inactive |  |  |  | 

Source: ChEMBL document CHEMBL1955752, “Synthesis and evaluation of fluorobenzoylated di- and tripeptides as inhibitors of cyclooxygenase-2 (COX-2)” (Bioorg Med Chem, 2012)
